Data on 38 compounds can be found in patent US10202354B2, “Therapeutic compounds and uses thereof” (GENENTECH, INC., priority 2015, dated 2019).

The IC50 is the concentration needed to halve the response being measured.

The target in the assay is Full length KDM2B (Homo sapiens (Human), UniProt Q8NHM5). The assay can be described thus: KDM2B TR-FRET Assay for Determining Inhibitor IC50. The class given is biochemical. Particulars: TR-FRET (HTRF), biotin-H3K36me2 peptide substrate. The text has this: KDM2B TR-FRET Assay for Determining Inhibitor IC50
Chain of Full length KDM2B (Q8NHM5 whole entry): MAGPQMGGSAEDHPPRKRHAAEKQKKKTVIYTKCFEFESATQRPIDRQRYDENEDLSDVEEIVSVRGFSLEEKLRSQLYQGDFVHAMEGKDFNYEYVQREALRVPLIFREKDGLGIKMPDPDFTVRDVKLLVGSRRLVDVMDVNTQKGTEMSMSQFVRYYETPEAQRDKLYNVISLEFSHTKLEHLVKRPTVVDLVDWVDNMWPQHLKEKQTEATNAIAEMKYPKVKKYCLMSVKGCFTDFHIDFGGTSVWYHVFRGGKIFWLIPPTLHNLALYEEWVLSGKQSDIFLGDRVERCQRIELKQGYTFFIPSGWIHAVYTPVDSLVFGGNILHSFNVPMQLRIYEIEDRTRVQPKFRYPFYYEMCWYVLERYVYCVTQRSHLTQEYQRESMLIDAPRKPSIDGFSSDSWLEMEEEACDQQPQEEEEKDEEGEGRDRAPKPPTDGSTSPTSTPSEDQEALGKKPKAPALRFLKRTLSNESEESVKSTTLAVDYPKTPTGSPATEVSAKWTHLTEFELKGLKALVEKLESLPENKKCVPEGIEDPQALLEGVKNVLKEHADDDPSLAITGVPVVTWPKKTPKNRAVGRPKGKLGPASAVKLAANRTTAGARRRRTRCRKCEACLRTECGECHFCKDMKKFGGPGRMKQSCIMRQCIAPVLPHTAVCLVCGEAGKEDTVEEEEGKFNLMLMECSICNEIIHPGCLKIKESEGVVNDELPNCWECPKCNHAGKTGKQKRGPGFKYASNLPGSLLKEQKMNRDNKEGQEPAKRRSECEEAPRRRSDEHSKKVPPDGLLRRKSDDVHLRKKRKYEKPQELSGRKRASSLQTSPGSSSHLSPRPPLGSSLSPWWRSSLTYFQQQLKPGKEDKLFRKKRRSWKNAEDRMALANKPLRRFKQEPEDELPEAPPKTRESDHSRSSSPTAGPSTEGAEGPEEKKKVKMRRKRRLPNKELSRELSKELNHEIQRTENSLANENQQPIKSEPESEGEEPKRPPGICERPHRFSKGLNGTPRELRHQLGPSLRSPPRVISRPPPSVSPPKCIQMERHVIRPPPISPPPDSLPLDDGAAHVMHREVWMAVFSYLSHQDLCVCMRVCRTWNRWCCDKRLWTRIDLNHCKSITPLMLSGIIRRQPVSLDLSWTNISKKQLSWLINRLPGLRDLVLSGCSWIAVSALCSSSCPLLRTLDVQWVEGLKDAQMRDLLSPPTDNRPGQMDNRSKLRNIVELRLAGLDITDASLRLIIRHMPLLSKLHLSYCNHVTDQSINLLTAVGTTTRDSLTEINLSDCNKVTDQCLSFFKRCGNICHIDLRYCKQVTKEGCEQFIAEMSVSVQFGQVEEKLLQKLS
The KDM2B TR-FRET Assay described above represents an additional embodiment of the invention.
Background: Time-resolved FRET reads energy transfer from a long-lived donor to a nearby acceptor.
As to `COc1ccccc1C(=O)N1CCN=C1N1CCN(C2CCC2)CC1` [Example 91, [2-(4-cyclobutylpiperazin-1-yl)-4,5-dihydroimidazol-1-yl]-(2-methoxyphenyl)methanone], the midpoint of inhibition, the IC50, lay at 11.5 nM. `CCN1CCN(C2=NCCN2S(=O)(=O)c2ccc(OC(F)(F)F)cc2)CC1` [Example 102, 1-ethyl-4-[1-[4-(trifluoromethoxy)phenyl]sulfonyl-4,5-dihydroimidazol-2-yl]piperazine] registered an IC50 of 1.66 nM. Then `CC(C)c1ccc(S(=O)(=O)N2CCN=C2N2CCN(C3CC(F)C3)CC2)cc1` (centres unmarked) [Example 40, 1-(3-fluorocyclobutyl)-4-[1-(4-isopropylphenyl)sulfonyl-4,5-dihydroimidazol-2-yl]piperazine], with 0.391 nM; and `O=S(=O)(c1ccc(Cl)c(Cl)c1)N1CCN=C1N1CCN(C2CCC2)CC1` [Example 67, 1-cyclobutyl-4-[1-(3,4-dichlorophenyl)sulfonyl-4,5-dihydromidazol-2-yl]piperazine], with 0.136 nM; and `O=S(=O)(c1ccc(-c2ccc(Cl)cc2)cc1)N1CCN=C1N1CCN(C2CCC2)CC1` [Example 23, 1-[1-[4-(4-chlorophenyl)phenyl]sulfonyl-4,5-dihydroimidazol-2-yl]-4-cyclobutyl-piperazine], with 0.275 nM.

`CCN1CCN(C2=NCCN2S(=O)(=O)c2cnn(CC)c2C)CC1` [Example 119, 1-ethyl-4-[1-(1-ethyl-5-methyl-pyrazol-4-yl)sulfonyl-4,5-dihydroimidazol-2-yl]piperazine] returned an IC50 of 11.4 nM. In turn, `O=S(=O)(c1ccc(-c2ccncc2)cc1)N1CCN=C1N1CCN(C2CCC2)CC1` [Example 18, 1-cyclobutyl-4-[1-[4-(4-pyridyl)phenyl]sulfonyl-4,5-dihydroimidazol-2-yl]piperazine] had an IC50 of 0.095 nM. The result for `CC(C)c1ccc(S(=O)(=O)N2CC3(CCCC3)N=C2N2CCN(C3CCC3)CC2)cc1` [Example 45, 2-(4-cyclobutylpiperazin-1-yl)-3-(4-isopropylphenyl)sulfonyl-1,3-diazaspiro[4.4]non-1-ene] reads 0.049 nM. The result for `CCN1CCN(C2=NCCN2S(=O)(=O)c2cccc(OC(F)F)c2)CC1` [Example 104, 1-[1-[3-(difluoromethoxy)phenyl]sulfonyl-4,5-dihydroimidazol-2-yl]-4-ethyl-piperazine] reads 7.76 nM. The result for `CCN1CCN(C2=NCCN2S(=O)(=O)c2cccc(C(F)(F)F)c2)CC1` [Example 103, 1-ethyl-4-[1-[3-(trifluoromethyl)phenyl]sulfonyl-4,5-dihydroimidazol-2-yl]piperazine] reads 6.99 nM. Compound `CCN1CCN(C2=NCCN2S(=O)(=O)c2ccc(OC(F)F)cc2)CC1` [Example 105, 1-[1-[4-(difluoromethoxy)phenyl]sulfonyl-4,5-dihydroimidazol-2-yl]-4-ethyl-piperazine] came in with an IC50 of 3.31 nM. The result for `O=S(=O)(c1ccc(-c2ccccc2)cc1)N1CCN=C1N1CCN(C2CCC2)CC1` [Example 14, 1-cyclobutyl-4-[1-(4-phenylphenyl)sulfonyl-4,5-dihydroimidazol-2-yl]piperazine] reads 0.048 nM; that for `O=S(=O)(c1ccc(-c2cccc(O)c2)cc1)N1CCN=C1N1CCN(C2CCC2)CC1` [Example 16, 3-[4-[[2-(4-cyclobutylpiperazin-1-yl)-4,5-dihydroimidazol-1-yl]sulfonyl]phenyl]phenol], 0.034 nM. The compound `Cc1cccc(-c2ccc(S(=O)(=O)N3CCN=C3N3CCN(C4CCC4)CC3)cc2)c1` [Example 9, 1-cyclobutyl-4-[1-[4-(m-tolyl)phenyl]sulfonyl-4,5-dihydroimidazol-2-yl]piperazine] displayed a half-inhibitory concentration (IC50) of 0.074 nM. Then `CCN1CCN(C2=N[C@@H](C)CN2S(=O)(=O)c2ccc(C(C)C)cc2)CC1` [Example 44, (S)-1-ethyl-4-[1-(4-isopropylphenyl)sulfonyl-4-methyl-4,5-dihydroimidazol-2-yl]piperazine], with 0.519 nM. In turn, `CC(C)c1ccc(S(=O)(=O)N2CCN=C2N2C3CCC2CN(C2CCC2)C3)cc1` [Example 48, 3-cyclobutyl-8-[1-(4-isopropylphenyl)sulfonyl-4,5-dihydroimidazol-2-yl]-3,8-diazabicyclo[3.2.1]octane] had a half-inhibitory concentration (IC50) of 1.19 nM. Compound `COc1ccc(-c2ccc(S(=O)(=O)N3CCN=C3N3CCN(C4CCC4)CC3)cc2)cc1` [Example 3, 1-cyclobutyl-4-[1-[4-(4-methoxyphenyl)phenyl]sulfonyl-4,5-dihydroimidazol-2-yl]piperazine] displayed an IC50 of 0.08 nM. Then `Cn1c(=O)oc2cc(S(=O)(=O)N3CCN=C3N3CCN(C4CCC4)CC3)ccc21` [Example 55, 6-[[2-(4-cyclobutylpiperazin-1-yl)-4,5-dihydroimidazol-1-yl]sulfonyl]-3-methyl-1,3-benzoxazol-2-one], with 0.36 nM; and `CCN1CCN(C2=NCCN2S(=O)(=O)c2cccc(OC)c2)CC1` [Example 115, 1-ethyl-4-[1-(3-methoxyphenyl)sulfonyl-4,5-dihydroimidazol-2-yl]piperazine], with 3.57 nM. Then `N#Cc1cccc(-c2ccc(S(=O)(=O)N3CCN=C3N3CCN(C4CCC4)CC3)cc2)c1` [Example 13], with 0.145 nM. As to `CCN1CCN(C2=NCCN2S(=O)(=O)c2ccc(Cl)cc2Cl)CC1` [Example 100, 1-[1-(2,4-dichlorophenyl)sulfonyl-4,5-dihydroimidazol-2-yl]-4-ethyl-piperazine], the midpoint of inhibition, the IC50, lay at 2.83 nM.

As to `Cn1ccc(-c2ccc(S(=O)(=O)N3CCN=C3N3CCN(C4CCC4)CC3)cc2)n1` [Example 28, 1-cyclobutyl-4-[1-[4-(1-methylpyrazol-3-yl)phenyl]sulfonyl-4,5-dihydroimidazol-2-yl]piperazine], the IC50 turned out to be 0.049 nM. Compound `Cc1ccccc1-c1ccc(S(=O)(=O)N2CCN=C2N2CCN(C3CCC3)CC2)cc1` [Example 8, 1-cyclobutyl-4-[1-[4-(o-tolyl)phenyl]sulfonyl-4,5-dihydroimidazol-2-yl]piperazine] showed an IC50 of 0.077 nM.

On to `CC(C)c1ccc(S(=O)(=O)N2CCN=C2N2CCN(C3CCC3)CC2)cc1` [Example 31, 1-cyclobutyl-4-(1-((4-isopropylphenyl)sulfonyl)-4,5-dihydro-1H-imidazol-2-yl)piperazine], for which the IC50 was determined as 0.043 nM. `N#Cc1ccc(-c2ccc(S(=O)(=O)N3CCN=C3N3CCN(C4CCC4)CC3)cc2)cc1` [Example 5, 4-[4-[[2-(4-cyclobutylpiperazin-1-yl)-4,5-dihydroimidazol-1-yl]sulfonyl]phenyl]benzonitrile]: the IC50 came to 0.097 nM. The compound `CCN1CCN(C2=NCCN2S(=O)(=O)c2cc(Cl)ccc2Cl)CC1` [Example 106, 1-[1-(2,5-dichlorophenyl)sulfonyl-4,5-dihydroimidazol-2-yl]-4-ethyl-piperazine] displayed a half-maximal inhibitory concentration (IC50) of 3.57 nM. Take `O=S(=O)(c1ccc(-c2cccc(F)c2)cc1)N1CCN=C1N1CCN(C2CCC2)CC1` [Example 26, 1-cyclobutyl-4-[1-[4-(3-fluorophenyl)phenyl]sulfonyl-4,5-dihydroimidazol-2-yl]piperazine]: inhibition was half-maximal at 0.138 nM (IC50). Then `CC(C)c1ccc(S(=O)(=O)N2C[C@@H](C)N=C2N2CCN(C3CCC3)CC2)cc1` [Example 46, (R)-1-cyclobutyl-4-[1-(4-isopropylphenyl)sulfonyl-4-methyl-4,5-dihydroimidazol-2-yl]piperazine], with 0.054 nM.

`CCN1CCN(C2=NCCN2S(=O)(=O)c2ccc(-c3ccc(F)cc3)cc2)CC1` [Example 98, 1-ethyl-4-[1-[4-(4-fluorophenyl)phenyl]sulfonyl-4,5-dihydroimidazol-2-yl]piperazine] came in with an IC50 of 1.02 nM. In the case of `O=S(=O)(c1cccc2nonc12)N1CCN=C1N1CCN(C2CCC2)CC1` [Example 64, 4-[[2-(4-cyclobutylpiperazin-1-yl)-4,5-dihydroimidazol-1-yl]sulfonyl]-2,1,3-benzoxadiazole], 0.5 nM corresponded to half-maximal inhibition (IC50). The result for `CCN1CCN(C2=N[C@H](C)CN2S(=O)(=O)c2ccc(C(C)C)cc2)CC1` [Example 43, (R)-1-ethyl-4-[1-(4-isopropylphenyl)sulfonyl-4-methyl-4,5-dihydroimidazol-2-yl]piperazine] reads 8.76 nM; that for `CCN1CCN(C2=NCCN2S(=O)(=O)c2ccccc2OC)CC1` [Example 111, 1-ethyl-4-[1-(2-methoxyphenyl)sulfonyl-4,5-dihydroimidazol-2-yl]piperazine], 13.3 nM. The result for `O=S(=O)(c1ccc(-c2cncnc2)cc1)N1CCN=C1N1CCN(C2CCC2)CC1` [Example 30, 5-[4-[[2-(4-cyclobutylpiperazin-1-yl)-4,5-dihydroimidazol-1-yl]sulfonyl]phenyl]pyrimidine] reads 0.06 nM; that for `Cc1cccc(S(=O)(=O)N2CCN=C2N2CCN(C3CCC3)CC2)c1` [Example 59, 1-cyclobutyl-4-[1-(m-tolylsulfonyl)-4,5-dihydroimidazol-2-yl]piperazine], 0.146 nM. `CC1CCC(N2CCN(C3=NCCN3S(=O)(=O)c3ccc(C(C)C)cc3)CC2)C1` (centres unmarked) [Example 94, 1-[1-(4-isopropylphenyl)sulfonyl-4,5-dihydroimidazol-2-yl]-4-(3-methylcyclopentyl)piperazine] displayed an IC50 of 1.42 nM.

With `O=S(=O)(c1ccc2c(c1)CCCC2)N1CCN=C1N1CCN(C2CCC2)CC1` [Example 32, 1-cyclobutyl-4-(1-tetralin-6-ylsulfonyl-4,5-dihydroimidazol-2-yl)piperazine], the IC50 was 0.016 nM. `O=S(=O)(c1ccc(-c2ccc(C(F)(F)F)cc2)cc1)N1CCN=C1N1CCN(C2CCC2)CC1` [Example 12, 1-cyclobutyl-4-[1-[4-[4-(trifluoromethyl)phenyl]phenyl]sulfonyl-4,5-dihydroimidazol-2-yl]piperazine] returned an IC50 of 0.38 nM. Then `CCN1CCN(C2=NCCN2S(=O)(=O)c2cccc(OC(F)(F)F)c2)CC1` [Example 99, 1-ethyl-4-[1-[3-(trifluoromethoxy)phenyl]sulfonyl-4,5-dihydroimidazol-2-yl]piperazine], with 6.22 nM.
